Reference: patent US20240109903A1, “SUBSTITUTED HETEROCYCLES FOR TREATING CANCER” (Northwestern University, priority 2022, published 2024)

Tests used:
full NCI 60 cell panel = test: NCI 60 Cell One-dose screen; type: cell-based, human; details: single high dose 10^−5 M, NCI 60 panel
Text: Compounds were submitted to the NCI 60 Cell screen and tested at a single high dose (10^−5 M) in the full NCI 60 cell panel (see the following reference for details of using NCI 60 human tumor cell lines for screening anticancer drugs: Shoemaker R H. The NCI60 human tumor cell line anticancer drug screen. Nature Rev Cancer 2006; 6: 813-23). The One-dose data is reported as a mean graph of the percent growth of treated cells. The number reported for the One-dose assay is growth relative to the no-drug control, and relative to the time zero number of cells. This allows detection of both growth inhibition (values between 0 and 100) and lethality (values less than 0). For example, a value of 100 means no growth inhibition. A value of 40 would mean 60% growth inhibition. A value of 0 means no net growth over the course of the experiment. A value of −40 would mean 40% lethality. A value of −100 means all cells are dead. FIGS. 1-8 show the mean graph of percent growth against the NCI-60 cell panel for NUCC-0226674, NUCC-0226679, NUCC-0226680, NUCC-0226683, NUCC-0226689, NUCC-0226694, NUCC-0226695, and NUCC-0226698.

HL-60(TB) = test: NCI 60 five-dose screen HL-60(TB); type: cell-based; details: Homo sapiens, five-dose
MOLT-4 = test: NCI 60 five-dose screen MOLT-4; type: cell-based; details: Homo sapiens, five-dose
RPMI-8226 = test: NCI 60 five-dose screen RPMI-8226; type: cell-based; details: Homo sapiens, five-dose
SR = test: NCI 60 five-dose screen SR; type: cell-based, human; details: five-dose
NCI-H226 = test: NCI 60 five-dose screen NCI-H226; type: cell-based; details: Homo sapiens, five-dose
NCI-H322M = test: NCI 60 five-dose screen NCI-H322M; type: cell-based; details: Homo sapiens, five-dose
COLO 205 = test: NCI 60 five-dose screen COLO 205; type: cell-based; details: Homo sapiens, five-dose
KM12 = test: NCI 60 five-dose screen KM12; type: cell-based; details: Homo sapiens, five-dose
U251 = test: NCI 60 five-dose screen U251; type: cell-based; details: Homo sapiens, U-251, five-dose
LOX IMVI = test: NCI 60 five-dose screen LOX IMVI; type: cell-based; details: Homo sapiens, five-dose
MDA-MB-435 = test: NCI 60 five-dose screen MDA-MB-435; type: cell-based; details: Homo sapiens, five-dose
SK-MEL-28 = test: NCI 60 five-dose screen SK-MEL-28; type: cell-based; details: Homo sapiens, five-dose
SK-MEL-5 = test: NCI 60 five-dose screen SK-MEL-5; type: cell-based; details: Homo sapiens, five-dose
UACC-62 = test: NCI 60 five-dose screen UACC-62; type: cell-based; details: Homo sapiens, five-dose
OVCAR-5 = test: NCI 60 five-dose screen OVCAR-5; type: cell-based; details: Homo sapiens, five-dose
OVCAR-8 = test: NCI 60 five-dose screen OVCAR-8; type: cell-based; details: Homo sapiens, five-dose
786-0 = test: NCI 60 five-dose screen 786-0; type: cell-based; details: Homo sapiens, five-dose
RXF 393 = test: NCI 60 five-dose screen RXF 393; type: cell-based; details: Homo sapiens, five-dose
SN12C = test: NCI 60 five-dose screen SN12C; type: cell-based; details: Homo sapiens, five-dose
TK-10 = test: NCI 60 five-dose screen TK-10; type: cell-based; details: Homo sapiens, five-dose
MDA-MB-231/ATCC = test: NCI 60 five-dose screen MDA-MB-231/ATCC; type: cell-based; details: Homo sapiens, five-dose
BT-549 = test: NCI 60 five-dose screen BT-549; type: cell-based; details: Homo sapiens, five-dose
MDA-MB-468 = test: NCI 60 five-dose screen MDA-MB-468; type: cell-based; details: Homo sapiens, five-dose
[1] = read-out: LC50 (the source's name) (converted)
[2] = read-out: LC50 (the source's name)

Question: How did the “growth inhibition in the One-Dose Screen” value (full NCI 60 cell panel) turn out when `FC(F)(F)c1cc2c(Cl)ncnc2n1CCN1CCOCC1` [NUCC-0226680] was run?
Answer: significant growth inhibition

Question: And the GI50 (HL-60(TB))?
Answer: 2.09 µM

Question: What about the IC50 (HL-60(TB)) of the same compound?
Answer: 3.89 µM

Question: And the IC (TGI) (HL-60(TB))?
Answer: 6.03 µM

Question: What about the CC50 (HL-60(TB); [1]) of the same compound?
Answer: 66.1 µM

Question: And the GI50 (MOLT-4)?
Answer: 5.75 µM

Question: What about the IC50 (MOLT-4) of the same compound?
Answer: 10.7 µM

Question: What about the IC (TGI) (MOLT-4) of the same compound?
Answer: 28.8 µM

Question: And the CC50 (MOLT-4; [2])?
Answer: ≥ 100 µM

Question: And the GI50 (RPMI-8226)?
Answer: 31.6 µM

Question: What about the IC50 (RPMI-8226) of the same compound?
Answer: 46.8 µM

Question: And the IC (TGI) (RPMI-8226)?
Answer: 100 µM

Question: What about the CC50 (RPMI-8226; [2]) of the same compound?
Answer: ≥ 100 µM

Question: And the GI50 (SR; Homo sapiens)?
Answer: 2.88 µM

Question: What about the IC50 (SR; Homo sapiens) of the same compound?
Answer: 4.37 µM

Question: And the CC50 (SR; Homo sapiens, read-out: LC50 (the source's name))?
Answer: ≥ 100 µM

Question: And the TGI (SR)?
Answer: 4.9 −log[M]

Question: And the GI50 (NCI-H226)?
Answer: 100 µM

Question: What about the IC50 (NCI-H226) of the same compound?
Answer: 100 µM

Question: And the IC (TGI) (NCI-H226)?
Answer: 100 µM

Question: What about the CC50 (NCI-H226; [1]) of the same compound?
Answer: ≥ 100 µM

Question: What about the GI50 (NCI-H322M) of the same compound?
Answer: 15.8 µM

Question: And the IC50 (NCI-H322M)?
Answer: 41.7 µM

Question: And the IC (TGI) (NCI-H322M)?
Answer: 53.7 µM

Question: And the CC50 (NCI-H322M; [1])?
Answer: ≥ 100 µM

Question: What about the GI50 (COLO 205) of the same compound?
Answer: 26.3 µM

Question: And the IC50 (COLO 205)?
Answer: 58.9 µM

Question: And the IC (TGI) (COLO 205)?
Answer: 100 µM

Question: What about the CC50 (COLO 205; [1]) of the same compound?
Answer: ≥ 100 µM

Question: And the GI50 (KM12)?
Answer: 35.5 µM

Question: What about the IC50 (KM12) of the same compound?
Answer: 51.3 µM

Question: What about the IC (TGI) (KM12) of the same compound?
Answer: 100 µM

Question: And the CC50 (KM12; [1])?
Answer: ≥ 100 µM

Question: What about the GI50 (U251) of the same compound?
Answer: 14.8 µM

Question: And the IC50 (U251)?
Answer: 24 µM

Question: What about the IC (TGI) (U251) of the same compound?
Answer: 38.9 µM

Question: And the CC50 (U251; [1])?
Answer: ≥ 100 µM

Question: And the GI50 (LOX IMVI)?
Answer: 1.74 µM

Question: What about the IC50 (LOX IMVI) of the same compound?
Answer: 3.02 µM

Question: What about the IC (TGI) (LOX IMVI) of the same compound?
Answer: 3.39 µM

Question: And the CC50 (LOX IMVI; [1])?
Answer: 6.61 µM

Question: And the GI50 (MDA-MB-435)?
Answer: 13.2 µM

Question: And the IC50 (MDA-MB-435)?
Answer: 22.4 µM

Question: And the IC (TGI) (MDA-MB-435)?
Answer: 29.5 µM

Question: And the CC50 (MDA-MB-435; [1])?
Answer: 64.6 µM

Question: And the GI50 (SK-MEL-28)?
Answer: 13.5 µM

Question: And the IC50 (SK-MEL-28)?
Answer: 25.1 µM

Question: And the IC (TGI) (SK-MEL-28)?
Answer: 33.1 µM

Question: And the CC50 (SK-MEL-28; [1])?
Answer: 79.4 µM

Question: And the GI50 (SK-MEL-5)?
Answer: 12.9 µM

Question: What about the IC50 (SK-MEL-5) of the same compound?
Answer: 22.9 µM

Question: What about the IC (TGI) (SK-MEL-5) of the same compound?
Answer: 29.5 µM

Question: And the CC50 (SK-MEL-5; [1])?
Answer: 67.6 µM

Question: And the GI50 (UACC-62)?
Answer: 10.7 µM

Question: And the IC50 (UACC-62)?
Answer: 20.9 µM

Question: What about the IC (TGI) (UACC-62) of the same compound?
Answer: 32.4 µM

Question: And the CC50 (UACC-62; [1])?
Answer: 97.7 µM

Question: What about the GI50 (OVCAR-5) of the same compound?
Answer: 100 µM

Question: And the IC50 (OVCAR-5)?
Answer: 100 µM

Question: And the IC (TGI) (OVCAR-5)?
Answer: 100 µM

Question: What about the CC50 (OVCAR-5; [1]) of the same compound?
Answer: ≥ 100 µM

Question: What about the GI50 (OVCAR-8) of the same compound?
Answer: 8.51 µM

Question: And the IC50 (OVCAR-8)?
Answer: 13.8 µM

Question: And the IC (TGI) (OVCAR-8)?
Answer: 29.5 µM

Question: And the CC50 (OVCAR-8; [1])?
Answer: 93.3 µM

Question: And the GI50 (786-0)?
Answer: 37.2 µM

Question: And the IC50 (786-0)?
Answer: 61.7 µM

Question: What about the IC (TGI) (786-0) of the same compound?
Answer: 100 µM

Question: What about the CC50 (786-0; [1]) of the same compound?
Answer: ≥ 100 µM

Question: And the GI50 (RXF 393)?
Answer: 14.8 µM

Question: What about the IC50 (RXF 393) of the same compound?
Answer: 42.7 µM

Question: What about the IC (TGI) (RXF 393) of the same compound?
Answer: 40.7 µM

Question: What about the CC50 (RXF 393; [1]) of the same compound?
Answer: ≥ 100 µM

Question: And the GI50 (SN12C)?
Answer: 19.5 µM

Question: What about the IC50 (SN12C) of the same compound?
Answer: 38.9 µM

Question: What about the IC (TGI) (SN12C) of the same compound?
Answer: 100 µM

Question: And the CC50 (SN12C; [1])?
Answer: ≥ 100 µM

Question: What about the GI50 (TK-10) of the same compound?
Answer: 100 µM

Question: And the IC50 (TK-10)?
Answer: 100 µM

Question: And the IC (TGI) (TK-10)?
Answer: 100 µM

Question: And the CC50 (TK-10; [1])?
Answer: ≥ 100 µM

Question: And the GI50 (MDA-MB-231/ATCC)?
Answer: 4.37 µM

Question: What about the IC50 (MDA-MB-231/ATCC) of the same compound?
Answer: 11.5 µM

Question: What about the IC (TGI) (MDA-MB-231/ATCC) of the same compound?
Answer: 18.2 µM

Question: What about the CC50 (MDA-MB-231/ATCC; [1]) of the same compound?
Answer: 53.7 µM

Question: What about the GI50 (BT-549) of the same compound?
Answer: 13.5 µM

Question: And the IC50 (BT-549)?
Answer: 28.2 µM

Question: And the IC (TGI) (BT-549)?
Answer: 28.2 µM

Question: And the CC50 (BT-549; [1])?
Answer: 58.9 µM

Question: What about the GI50 (MDA-MB-468) of the same compound?
Answer: 2.75 µM

Question: What about the IC50 (MDA-MB-468) of the same compound?
Answer: 15.8 µM

Question: And the IC (TGI) (MDA-MB-468)?
Answer: 10.5 µM

Question: And the CC50 (MDA-MB-468; [1])?
Answer: 42.7 µM
